Data from patent publication US10071042B2, “External dermatological agent for anti-ageing” (Hayashibara Co., Ltd., priority 2014, dated 2018).
Where two headings read alike, the source gives them in different places. Marks after values point to notes of the source that are not given here.

Assays:
3T3 = experiment: TG432: In vitro 3T3 NRU Phototoxicity Test; type: cell-based
Description: Based on this, external dermal agent containing any of adenosine N1-oxide 5′-phosphate, analogues thereof, and their salts can be said to be safe.

[1] = Photostability under fluorescent lamp, HPLC residual percentage (Experiment 10); type: physicochemical; conditions: fluorescent lamp about 4,000 lux, 28° C.
Protocol: To 25 mg of each of the test substances in Table 13 was added each of Mcllvain buffers adjusted to different pHs to give a total volume of 50 mL and distributed to transparent glass screw bottles (5 mL) with plastic screw caps equal to the number of the test substances by 2.0 mL. Under a fluorescent lamp with about 4,000 lux at 28° C., the glass screw bottles were allowed to lay along. Sodium adenosine N1-oxide 5′-phosphate and 5′-glucosyl adenosine N1-oxide were respectively analyzed on HPLC at the initiation of the test and at eight weeks after initiating the experiment, and at the initiation of the test and at two weeks intervals up to eight weeks after the initiation, followed by taking out one of the bottles for HPLC analysis. The analysis was repeated three times and the average residual percentage of each test substance was calculated based on the area ratio against the peak area for each test substance upon HPLC chromatogram at the initiation of the experiment. […] Equation: Residual percentage (%) of test substance=[(Average peak area after a prescribed time lapse at respective pHs for each test substance)/(Average peak area at the initiation of experiment at respective pHs for each test substance)]×100

[2] = system: normal human dermal fibroblasts (NHDF); experiment: Number of cells, Alamar Blue (Experiment 4); type: cell-based; conditions: control = 100%
Protocol: To confirm cell proliferation under the above conditions tested, normal human dermal fibroblasts (NHDF), which had been suspended in a Dulbecco's Modified Eagle Medium supplemented with 10% fetal calf serum to give a cell concentration of 2.5×10^5 cells/mL, were placed in 96-well microplates by 0.1 mL/well and cultured for one day. The resulting cells were washed with Dulbecco's phosphate buffered saline and cultured for another two days in a Dulbecco's Modified Eagle Medium supplemented with any one of the test substances in Table 5. The culture supernatants were removed from the microplates, to which were then added 0.2 mL/well of a dilution of “Alamar Blue” diluted with the same culture medium as used in the above by 10 folds to react with the cells at 37° C. for two hours, followed by measuring the fluorescent intensity of the cells at an excitation wavelength of 544 nm and a fluorescent wavelength of 590 nm and obtaining the variation of the number of cells with the addition of any one of the test substances based on the fluorescent intensity of a control system, which had been treated similarly as in the above except for not adding any of the test substances, being regarded as 100%.
(§1) The experiment was repeated three times, and the data was compared to that of control with the Dunnett's multiple comparisons test. The symbol “*” means a level of significance of p<0.01.

elastin = experiment: Elastin production of normal human dermal fibroblasts, colorimetric kit (Experiment 4); type: cell-based; conditions: 2 days, control = 100%
Protocol: Normal human dermal fibroblasts (NHDF), which had been suspended in a Dulbecco's Modified Eagle Medium supplemented with 10% fetal calf serum to give a cell concentration of 3×10^5 cells/mL, were placed in 24-well plates by 0.5 mL/well and cultured for one day. The cultured cells were washed with Dulbecco's phosphate buffered saline and cultured for another two days in a Dulbecco's Modified Eagle Medium, supplemented with any one of the test substances in Table 5 at respective concentrations shown in the table, to induce elastin synthesis. Thereafter, each culture supernatant was collected, and the remaining cells were washed with one milliliter of Dulbecco's phosphate buffered saline, added with 0.1 mL of 0.25% trypsin and ethylenediaminetetraacetate, followed by incubation at 37° C. for two minutes to detach the cells from the plates. A half milliliter of Dulbecco's phosphate buffered saline was added to each plate, and the resulting cell suspensions were collected in a 1.5-mL tube which was then subjected to centrifugation (3,000×g for five minutes) to collect the cells. Elastin was quantified with a colorimetric determination kit commercialized by Biocolor Ltd., […]. The previously collected supernatant was used to suspend the collected cells, to which was then added 0.16 mL of 1 M oxalic acid, a reagent affixed to the kit, and incubated at 100° C. for one hour to solubilize elastin. To the solubilized elastin placed in a container was added 0.66 mL of an elastin precipitant as a reagent affixed to the kit, mixed for 15 min while repeatedly reversing the container, and centrifuged at 10,000×g for 10 min to precipitate proteins. A half milliliter of a dye, as a reagent affixed to the kit, was added to the resulting precipitate, followed by repeatedly reversing the container for 90 min and centrifuged at 10,000×g for 10 min to collect sediments bound with the dye. Thereafter, the collected sediments were added with 0.25 mL of a dye separator as a reagent affixed to the kit, and mixed for one hour while repeatedly reversing a container with the resulting mixture, followed by determining the absorbance of the resulting mixture at a wavelength of 490 nm and calculating the amount of elastin per well. A calibration curve was generated with an accessory for the kit. A control system was provided by similarly treating normal human dermal fibroblasts (NHDF) without adding any test substance and determined for its absorbance at a wavelength of 490 nm. Regarding the absorbance as 100%, the production level of elastin of each test substance was comparatively evaluated based on the following equation. Equation: Production level of elastin (relative value (%))=[(Absorbance of a sample with any one of test substances)/(Absorbance of control)]×100
as §1

[3] = pH 4 to 5, at the initiation of experiment
[4] = pH 6 to 7, at the initiation of experiment
[5] = pH 8 to 9, at the initiation of experiment

3′-α-glucosyl adenosine N1-oxide [3′-α-Glucosyladenosine N1-oxide]
optical toxicity (3T3): no optical toxicity

5′-α-glucosyl adenosine N1-oxide [5′-α-Glucosyladenosine N1-oxide]
Residual percentage (%) [1, 3]: 100.0%
Residual percentage (%) ([1]; pH 4 to 5, eight weeks): 9.8%
Residual percentage (%) ([1]; pH 4 to 5, eight weeks, listed as 5′-glucosyl adenosine N1-oxide): about 10%
Residual percentage (%) ([1]; pH 4 to 5, four weeks): 27.3%
Residual percentage (%) ([1]; pH 4 to 5, six weeks): 9.7%
Residual percentage (%) ([1]; pH 4 to 5, two weeks): 51.7%
Residual percentage (%) [1, 4]: 100.0%
Residual percentage (%) ([1]; pH 6 to 7, eight weeks): 34.3%
Residual percentage (%) ([1]; pH 6 to 7, four weeks): 57.7%
Residual percentage (%) ([1]; pH 6 to 7, six weeks): 40.8%
Residual percentage (%) ([1]; pH 6 to 7, two weeks): 79.1%
Residual percentage (%) [1, 5]: 100.0%
Residual percentage (%) ([1]; pH 8 to 9, eight weeks): 24.0%
Residual percentage (%) ([1]; pH 8 to 9, four weeks): 47.8%
Residual percentage (%) ([1]; pH 8 to 9, six weeks): 35.4%
Residual percentage (%) ([1]; pH 8 to 9, two weeks): 70.7%
optical toxicity (3T3): no optical toxicity

Nc1ncnc2c1ncn2[C@@H]1O[C@H](COP(=O)(O)O)[C@@H](O)[C@H]1O [Adenosine 5′-phosphate, reference compound]
Number of cells (%) ([2]; 10 μM): 101.0%
Number of cells (%) ([2]; 40 μM): 102.0%
Number of cells (%) ([2]; 100 μM): 99.0%
Production level of elastin (%) (elastin; 10 μM): 114.4%
Production level of elastin (%) (elastin; 40 μM): 117.2%
Production level of elastin (%) (elastin; 100 μM): 120.0* %

Nc1c2ncn([C@@H]3O[C@H](CO)[C@@H](O)[C@H]3O)c2nc[n+]1[O-] [Adenosine N1-oxide, adenosine N1-oxide]
Residual percentage (%) [1, 3]: 100.0%
Residual percentage (%) ([1]; pH 4 to 5, eight weeks): 24.6%
Residual percentage (%) ([1]; pH 4 to 5, eight weeks, listed as adenosine N1-oxide): about 25%
Residual percentage (%) ([1]; pH 4 to 5, four weeks): 47.2%
Residual percentage (%) ([1]; pH 4 to 5, six weeks): 25.2%
Residual percentage (%) ([1]; pH 4 to 5, two weeks): 68.8%
Residual percentage (%) [1, 4]: 100.0%
Residual percentage (%) ([1]; pH 6 to 7, eight weeks): 66.2%
Residual percentage (%) ([1]; pH 6 to 7, four weeks): 81.6%
Residual percentage (%) ([1]; pH 6 to 7, six weeks): 71.3%
Residual percentage (%) ([1]; pH 6 to 7, two weeks): 90.6%
Residual percentage (%) [1, 5]: 100.0%
Residual percentage (%) ([1]; pH 8 to 9, eight weeks): 63.1%
Residual percentage (%) ([1]; pH 8 to 9, four weeks): 77.2%
Residual percentage (%) ([1]; pH 8 to 9, six weeks): 68.2%
Residual percentage (%) ([1]; pH 8 to 9, two weeks): 83.7%
optical toxicity (3T3): no optical toxicity
Number of cells (%) ([2]; 1 μM): 99.0%
Number of cells (%) ([2]; 4 μM): 98.0%
Number of cells (%) ([2]; 10 μM): 94.0%
Production level of elastin (%) (elastin; 1 μM): 108.8%
Production level of elastin (%) (elastin; 4 μM): 114.8%
Production level of elastin (%) (elastin; 10 μM): 118.4* %
Production level of elastin (%) (elastin; 10 μM, listed as adenosine N1-oxide): about 120%

Nc1c2ncn([C@@H]3O[C@H](COP(=O)([O-])O)[C@@H](O)[C@H]3O)c2nc[n+]1[O-].[Na+] [Sodium adenosine N1-oxide 5′-phosphate, sodium adenosine N1-oxide 5′-phosphate]
Residual percentage (%) [1, 3]: 100.0%
Residual percentage (%) ([1]; pH 4 to 5, eight weeks): 93.0%
Residual percentage (%) [1, 4]: 100.0%
Residual percentage (%) ([1]; pH 6 to 7, eight weeks): 88.8%
Residual percentage (%) [1, 5]: 100.0%
Residual percentage (%) ([1]; pH 8 to 9, eight weeks): 96.9%
optical toxicity (3T3; OECD test guideline TG432): no optical toxicity
Number of cells (%) ([2]; 1 μM): 104.0%
Number of cells (%) ([2]; 4 μM): 104.0%
Number of cells (%) ([2]; 10 μM): 101.0%
Production level of elastin (%) (elastin; 1 μM): 98.0%
Production level of elastin (%) (elastin; 4 μM): 105.2%
Production level of elastin (%) (elastin; 10 μM): 121.2* %
Production level of elastin (%) (elastin; 10 μM, listed as sodium adenosine N1-oxide 5′-phosphate): about 120%
